Patent US20090061005A1, “Paliperidone Polymorphs” (ACTAVIS GROUP PTC EHF, priority 2007, published 2009)
“And” between values parts separate entries of the source, which are not always exact repeats. Identical values can stand only once.

How the values were obtained:
[1] = Extended drying of Form A2 under vacuum (retention of hydrate water); type: physicochemical; settings: drying for 12 hours at about 80° C. under vacuum
[2] = Water (moisture) content of Form A2 by TGA; type: physicochemical
Protocol: Thermogravimetric analysis (TGA) was performed with a NETZSCH STA 409C/CD instrument. The term “water content” refers to the content of water based upon the Loss on Drying method as described in Pharmacopeial Forum, Vol. 24, No. 1, page 5438 (January-February 1998). The calculation of water content is based upon the percent of weight that is lost by drying. For Form A2 the term “water content” refers to the content of water based upon a TGA measurement.

removal of moisture on extended drying [1]: moisture could not be removed
water content ([2]; Form A2 obtained by the process, stable and consistently reproducible): 2.5-4 % w/w
Moisture content ([2]; isolated solid after drying under high vacuum at 60-70° C. for about 12 hours): 4 % w/w and 2.7 % w/w
Compound: Cc1nc2n(c(=O)c1CCN1CCC(c3noc4cc(F)ccc34)CC1)CCCC2O (racemic) [Form A2, (±)-3-[2-[4-(6-fluoro-1,2-benzisoxazol-3-yl)-1-piperidinyl]ethyl]-6,7,8,9-tetrahydro-9-hydroxy-2-methyl-4H-pyrido[1,2-a]pyrimidin-4-one]
